According to patent publication US20040157910A1, “Method of treatment or prophylaxis” (SmithKline Beecham Corporation, priority 2003, published 2004):
Counter-ions that a name gives are not always drawn.

Tests used:
Restless Legs Syndrome [1] = conditions: RLS, cited from earlier work
Restless Legs Syndrome [2] = conditions: RLS; well controlled studies prior to 1987; cited from earlier work
Restless Legs Syndrome [3] = assay: RLS patients treated with ropinirole (patient reports); type: in vivo, human; conditions: almost at once

For N[C@@H](Cc1ccc(O)c(O)c1)C(=O)O [L-dopa], the “time for which the effect has been maintained” value (Restless Legs Syndrome [1]; L-dopa) is listed as 2 years and the “patients in whom treatment was effective” value (Restless Legs Syndrome [1]; doses of L-dopa of 100 mg to 200 mg) is listed as 70 % of patients.

For NC(=O)N1c2ccccc2C=Cc2ccccc21 [carbamazepine], the “efficacy compared with placebo” value (Restless Legs Syndrome [2]) is listed as “superior to placebos”.

In the case of O=C1CN=C(c2ccccc2Cl)c2cc([N+](=O)[O-])ccc2N1 [clonazepam], the “efficacy compared with placebo” value (Restless Legs Syndrome [2]) is listed as “superior to placebos”.

In the case of CCCN(CCC)CCc1cccc2c1CC(=O)N2 [ropinirole, 4-[2-(di-n-propylamino)ethyl]-1,3-dihydro-2H-indolin-2-one hydrochloride], the “improvement in condition reported by RLS patients” value (Restless Legs Syndrome [3]) is reported as “dramatic improvement”.
